Experimental data published in PubChem BioAssay AID1195 (EPA DSSTox, 2008).

Tested on: human maximum recommended daily dose, FDA database
Assay: DSSTox (FDAMDD) FDA Maximum (Recommended) Daily Dose Database
Conditions: active compounds read low
In short: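 MRDD values come from clinical trials with daily oral dosing, usually for 3–12 months, for the average adult, in mg/day converted to mg/kg-bw/day assuming 60 kg. Antineoplastic mg/m2 doses are divided by 37. Activity score maps log10(1/MRDD mmol) onto 1–100.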

[1] = TherapeuticCategory: skeletal muscle relaxant, neuromuscular blocker
[2] = TherapeuticCategory: antibacterial
[3] = TherapeuticCategory: antineoplastic

`O=C(O)c1cccnc1` gave a maximum recommended daily dose (mmol/kg-bw/day) (TherapeuticCategory: vitamin) of 0.102.

`CC(C)NCC(O)c1ccc(NS(C)(=O)=O)cc1` (stereo unspecified) was tested, and the maximum recommended daily dose (mmol/kg-bw/day) (TherapeuticCategory: antianginal, antiarrhythmic, antihypertensive) was 0.0196.

In the case of `CN(C)CCN1C(=O)c2ccccc2N(C)c2ccccc21`, the maximum recommended daily dose (mmol/kg-bw/day) (TherapeuticCategory: antidepressant) is reported as 0.0406.

Work on `CCN(CC)CCNc1ccc(C)c2sc3ccccc3c(=O)c12` yielded a maximum recommended daily dose (mmol/kg-bw/day) (TherapeuticCategory: antihelmintic) of 0.0978.

Compound `N[C@@H](CCC(=O)O)C(=O)O` has a maximum recommended daily dose (mmol/kg-bw/day) (TherapeuticCategory: experimental antiepileptic) of 0.68.

`C=CC[N+]1([C@H]2C[C@H]3[C@@H]4CC[C@H]5C[C@H](O)[C@@H](N6CCOCC6)C[C@]5(C)[C@H]4CC[C@]3(C)[C@H]2OC(C)=O)CCCC1` gave a maximum recommended daily dose (mmol/kg-bw/day) [1] of 0.00197.

Compound `CCCCc1oc2ccccc2c1C(=O)c1cc(I)c(OCCN(CC)CC)c(I)c1` has a maximum recommended daily dose (mmol/kg-bw/day) (TherapeuticCategory: antiarrhythmic, antianginal) of 0.0414.

For `O=C(OC[C@H]1O[C@](O)(COC(=O)c2cccnc2)[C@@H](OC(=O)c2cccnc2)[C@@H]1OC(=O)c1cccnc1)c1cccnc1`, the maximum recommended daily dose (mmol/kg-bw/day) (TherapeuticCategory: peripheral vasodilator) was 0.111.

For `CN(C)C(=N)N=C(N)N`, the maximum recommended daily dose (mmol/kg-bw/day) (TherapeuticCategory: antidiabetic) was 0.387.

Compound `CC1(C)S[C@@H]2[C@H](NC(=O)C3(N)CCCCC3)C(=O)N2[C@H]1C(=O)O` has a maximum recommended daily dose (mmol/kg-bw/day) [2] of 0.0975.

`COc1cc2c(cc1OC)C(Cc1cc(OC)c(OC)c(OC)c1)[N+](C)(CCCOC(=O)CC/C=C/CCC(=O)OCCC[N+]1(C)CCc3cc(OC)c(OC)cc3C1Cc1cc(OC)c(OC)c(OC)c1)CC2` (stereo unspecified) gave a maximum recommended daily dose (mmol/kg-bw/day) [1] of 0.000227.

`CCC(C)(C)C(=O)O[C@H]1C[C@@H](C)C=C2C=C[C@H](C)[C@H](CC[C@@H]3C[C@@H](O)CC(=O)O3)[C@H]21` was tested, and the maximum recommended daily dose (mmol/kg-bw/day) (TherapeuticCategory: antihyperlipoproteinemic) was 0.00159.

In the case of `CCC(COC(=O)c1cc(OC)c(OC)c(OC)c1)(c1ccccc1)N(C)C` (stereo unspecified), the maximum recommended daily dose (mmol/kg-bw/day) (TherapeuticCategory: antispasmodic) is reported as 0.0258.

`CN[C@@H]1CCc2[nH]c3ccc(C(N)=O)cc3c2C1` showed a maximum recommended daily dose (mmol/kg-bw/day) (TherapeuticCategory: antimigraine) of 0.000514.

With `O=C(O)CCC(=O)c1ccc2c(c1)-c1cccc3cccc-2c13` the maximum recommended daily dose (mmol/kg-bw/day) (TherapeuticCategory: choleretic) was 0.0552.

For `CC(=O)OCC(=O)[C@@]1(O)[C@@H](C)C[C@H]2[C@@H]3CCC4=CC(=O)C=C[C@]4(C)[C@@]3(F)[C@@H](O)C[C@@]21C`, the maximum recommended daily dose (mmol/kg-bw/day) (TherapeuticCategory: glucocorticoid) was 0.000345.

`COCC(=O)O[C@]1(CCN(C)CCCc2nc3ccccc3[nH]2)CCc2cc(F)ccc2[C@@H]1C(C)C` gave a maximum recommended daily dose (mmol/kg-bw/day) (TherapeuticCategory: antihypertensive, Ca channel blocker) of 0.00337.

Compound `CC[C@H](CC[C@@H](C)[C@H]1CC[C@H]2[C@@H]3CC=C4C[C@@H](O)CC[C@]4(C)[C@H]3CC[C@]12C)C(C)C` has a maximum recommended daily dose (mmol/kg-bw/day) (TherapeuticCategory: anticholinesteremic) of 0.241.

For `N[C@@H](Cc1cnc[nH]1)C(=O)O`, the maximum recommended daily dose (mmol/kg-bw/day) (TherapeuticCategory: none) was 0.645.

For `C=CC[C@]1(O)CC[C@H]2[C@@H]3CCC4=CCCC[C@@H]4[C@H]3CC[C@@]21C`, the maximum recommended daily dose (mmol/kg-bw/day) (TherapeuticCategory: progestogen) was 0.000832.

Work on `COc1cc(C)c(/C=C/C(C)=C/C=C/C(C)=C/C(=O)O)c(C)c1C` yielded a maximum recommended daily dose (mmol/kg-bw/day) (TherapeuticCategory: antipsoriatic) of 0.00383.

In the case of `CC(C)(C)NC(=O)[C@H]1CC[C@H]2[C@@H]3CC[C@H]4NC(=O)C=C[C@]4(C)[C@H]3CC[C@]12C`, the maximum recommended daily dose (mmol/kg-bw/day) (TherapeuticCategory: prostatic hypertrophy treatment) is reported as 0.000224.

`Cc1onc(-c2ccccc2Cl)c1C(=O)N[C@@H]1C(=O)N2[C@@H]1SC(C)(C)[C@@H]2C(=O)O` was tested, and the maximum recommended daily dose (mmol/kg-bw/day) [2] was 0.0764.

With `CCCCc1ccc(C(=O)O)nc1` the maximum recommended daily dose (mmol/kg-bw/day) (TherapeuticCategory: none) was 0.0418.

With `CNC(C)(C)Cc1ccccc1` the maximum recommended daily dose (mmol/kg-bw/day) (TherapeuticCategory: adrenergic) was 0.00613.

Compound `NC[C@@H]1O[C@H](O[C@H]2[C@@H](O)[C@H](O[C@@H]3[C@@H](O)[C@H](N)C[C@H](N)[C@H]3O[C@H]3O[C@H](CO)[C@@H](O)C[C@H]3N)O[C@@H]2CO)[C@H](N)[C@@H](O)[C@@H]1O[C@H]1O[C@H](CO)[C@@H](O)[C@H](O)[C@@H]1O` has a maximum recommended daily dose (mmol/kg-bw/day) [2] of 0.0219.

`CO[C@H]1C[C@@H]2CC[C@@H](C)[C@@](O)(O2)C(=O)C(=O)N2CCCC[C@H]2C(=O)O[C@H]([C@H](C)C[C@@H]2CC[C@@H](O)[C@H](OC)C2)CC(=O)[C@H](C)/C=C(\C)[C@@H](O)[C@@H](OC)C(=O)[C@H](C)C[C@H](C)/C=C/C=C/C=C/1C` was tested, and the maximum recommended daily dose (mmol/kg-bw/day) (TherapeuticCategory: immunosuppressant) was 0.000148.

Work on `CC1OC(C)OC(C)O1` (stereo unspecified) yielded a maximum recommended daily dose (mmol/kg-bw/day) (TherapeuticCategory: sedative, hypnotic) of 1.89.

Work on `CN(C)CCOC(C)(c1ccccc1)c1ccc(Cl)cc1` (stereo unspecified) yielded a maximum recommended daily dose (mmol/kg-bw/day) (TherapeuticCategory: antiamebic) of 0.123.

`Nc1nc(=S)c2[nH]cnc2[nH]1` was tested, and the maximum recommended daily dose (mmol/kg-bw/day) [3] was 0.0324.

Compound `O=c1[nH]c(=S)[nH]cc1I` has a maximum recommended daily dose (mmol/kg-bw/day) (TherapeuticCategory: thyroid inhibitor) of 0.0197.

Work on `O[C@H]([C@H](O)[C@@H](O)CBr)[C@H](O)CBr` yielded a maximum recommended daily dose (mmol/kg-bw/day) [3] of 0.0158.

Work on `CC(=O)O[C@H]1CC[C@@]2(C)C(=CC[C@@H]3[C@@H]2CC[C@]2(C)C(=O)CC[C@@H]32)C1` yielded a maximum recommended daily dose (mmol/kg-bw/day) (TherapeuticCategory: androgen) of 0.0101.

With `N[C@@H]1CONC1=O` the maximum recommended daily dose (mmol/kg-bw/day) [2] was 0.164.

For `NC(Cc1ccccc1)C(=O)O` (stereo unspecified), the maximum recommended daily dose (mmol/kg-bw/day) [2] was 0.605.

`N=C(N)N` gave a maximum recommended daily dose (mmol/kg-bw/day) (TherapeuticCategory: none) of 0.846.
